{"source": "paper PMC7811009", "about": "“Oxytocin modulates local topography of human functional connectome in healthy men at rest” (Communications Biology, 2021)", "origin": "cited, not measured here", "conditions": "cited from earlier work", "from_the_text": "It is not yet clear which precise mechanisms mediate the effects of intravenous oxytocin on brain function. […] At least three mechanisms have been postulated. First, it is possible that the direct peripheral effects of oxytocin on oxytocin receptors expressed in vegetative territories, such as the heart, may be an indirect source of changes in the brain."}
{"molecule": "CC[C@H](C)[C@@H]1NC(=O)[C@H](Cc2ccc(O)cc2)NC(=O)[C@@H](N)CSSC[C@@H](C(=O)N2CCC[C@H]2C(=O)N[C@@H](CC(C)C)C(=O)NCC(N)=O)NC(=O)[C@H](CC(N)=O)NC(=O)[C@H](CCC(N)=O)NC1=O", "note": "[oxytocin]", "values": [{"measurement": "Amount crossing the blood–brain barrier (BBB)", "result": "very small amounts"}, {"measurement": "Effects on heart-rate or heart-rate variability", "setting": "same doses/methods and cohort of participants", "result": "absence of effects"}]}
